Data published in US11440907B1 (Merck Patent GmbH, priority 2018, dated 2022).
pEC50, pIC50: −log10 of the molar value.

Tests used:
[1] = tested on: β-catenin-TCF-mediated reporter transcription activity in Colo 205 cells; test: Colo 205 reporter assay (TCF/LEF promoter-driven firefly luciferase); format: cell-based; conditions: Homo sapiens; Colo 205 TCF/LEF luciferase reporter, 5 hours after compound addition, 384 well; read-out: Colo205 IC50
From the text: The compounds of the invention described herein were screened using the assay procedure for β-catenin-TCF-mediated reporter transcription activity described below.
Reporter cell lines were generated by stably transfecting cells of cancer cell lines (e.g., colon cancer) with a plasmid reporter construct (From SABiosciences, a QIAGEN company) that includes TCF/LEF promoter driving expression of the firefly luciferase gene. TCF/LEF reporter constructs were made in which TCF/LEF promoter, a promoter with optimal number of TCF/LEF binding sites designed by SABiosciences, was linked upstream of the firefly luciferase gene. This construct could also include a puromycin resistance gene as a selectable marker. This construct could also be used to stably transfect Colo 205 cells, a colon cancer cell line having a mutated APC gene that causes a constitutively active β-catenin. A control cell line was generated using another plasmid construct containing the luciferase gene under the control of a CMV basal promoter which is not activated by β-catenin.
Colo 205 Cultured cells with a stably transfected reporter construct were plated at approximately 10,000 cells per well into 384 well multi-well plates for twenty four hours. The testing compounds were then added to the wells in 2-fold serial dilutions using a twenty micromolar top concentration. A series of control wells for each cell type received only compound solvent. Five hours after the addition of compound, reporter activity for luciferase was assayed, by addition of the SteadyGlo luminescence reagent (Promega). The reporter luminescence activity was measured using Pherastar plate reader (BMG Labtech). Readings were normalized to DMSO only treated cells, and normalized activities were then used in the IC50 calculations. The Colo 205 reporter assay data are summarized in Table 3: A<0.3 μM; 0.3 μM≤B<1.0 μM; 1.0 μM≤C<5.0 μM; D≥5.0 μM.

[2] = tested on: XBP1(u)-luciferase splicing reporter in HepG2 hepatoma cells; test: HepG2 XBP1 reporter assay (XBP1(u)-Luc); format: cell-based; conditions: Homo sapiens, 6 hours after compound addition, Table 3, read-out: XBP1-luc HepG2 1 EC50

Question: With `Cc1cc(N2CCCOCC2c2cc3c(cc2Cl)SCCN3)nc(N)n1` (racemic) [I-274, 4-[3-(7-chloro-3,4-dihydro-2H-1,4-benzothiazin-6-yl)-1,4-oxazepan-4-yl]-6-methyl-pyrimidin-2-amine] as the compound, how does the pIC50 [1] read?
Answer: 6.00 to 6.52

Question: What about the pEC50 [2] of the same compound?
Answer: ≤ 5.30

Question: With `Cc1cc(N2CCCOC[C@H]2c2ccc(NC(=O)C(C)(C)O)cc2Cl)nc(N)n1` (racemic) [I-277, (+/−)-N-(4-(4-(2-amino-6-methylpyrimidin-4-yl)-1,4-oxazepan-3-yl)-3-chlorophenyl)-2-hydroxy-2-methylpropanamide] as the compound, how does the pIC50 [1] read?
Answer: > 6.52

Question: What about the pEC50 [2] of the same compound?
Answer: > 6.22

Question: `Cc1cc(N2CCCOCC2c2ccc(NC(=O)C3(F)CCOC3)cc2Cl)nc(N)n1` (racemic) [I-279, (+/−)-N-(4-(4-(2-amino-6-methylpyrimidin-4-yl)-1,4-oxazepan-3-yl)-3-chlorophenyl)-3-fluorotetrahydrofuran-3-carboxamide] was tested. Which pIC50 [1] did it give?
Answer: > 6.52

Question: And the pEC50 [2]?
Answer: > 6.22

Question: With `Cc1cc(N2CCCOCC2c2ccc(NC(=O)[C@@H]3CCOC3)cc2Cl)nc(N)n1` (mixture of isomers) [I-280, (3R)—N-(4-(4-(2-amino-6-methylpyrimidin-4-yl)-1,4-oxazepan-yl)-3-chlorophenyl)-tetrahydrofuran-3-carboxamide] as the compound, how does the pIC50 [1] read?
Answer: 6.00 to 6.52

Question: What about the pEC50 [2] of the same compound?
Answer: > 6.22

Question: Which results are given for `Cc1cc(N2CCCOCC2c2ccc(NC(=O)[C@H]3CCOC3)cc2Cl)nc(N)n1` (mixture of isomers) [I-281, (3S)—N-(4-(4-(2-amino-6-methylpyrimidin-4-yl)-1,4-oxazepan-3-yl)-3-chlorophenyl)-tetrahydrofuran-3-carboxamide]?
Answer: pIC50 [1]: 6.00 to 6.52; pEC50 [2]: 5.70 to 6.22

Question: How did the pIC50 [1] turn out when `Cc1cc(N2CCCOCC2c2ccc(NC(=O)C3(C)COC3)cc2Cl)nc(N)n1` (racemic) [I-282, (+/−)-N-(4-(4-(2-amino-6-methylpyrimidin-4-yl)-1,4-oxazepan-3-yl)-3-chlorophenyl)-3-methyloxetane-3-carboxamide] was run?
Answer: 6.00 to 6.52

Question: What about the pEC50 [2] of the same compound?
Answer: 5.70 to 6.22

Question: What does the source list for `Cc1cc(N2CCCCC[C@H]2c2ccccc2Br)nc(N)n1` (single isomer, unassigned) [I-3]?
Answer: pIC50 [1]: > 6.52; pEC50 [2]: > 6.22

Question: `COc1ccccc1[C@H]1CCCCCN1c1cc(C)nc(N)n1` (single isomer, unassigned) [I-11] was tested. Which pIC50 [1] did it give?
Answer: > 6.52

Question: And the pEC50 [2]?
Answer: 5.30 to 5.70

Question: How did the pIC50 [1] turn out when `Cc1cc(N2CCCCC[C@H]2c2ccccc2Cl)nc(N)n1` (single isomer, unassigned) [I-14] was run?
Answer: > 6.52

Question: What about the pEC50 [2] of the same compound?
Answer: > 6.22

Question: How did the pIC50 [1] turn out when `COc1cc(S(C)(=O)=O)ccc1[C@@H]1CCCCCN1c1cc(C)nc(N)n1` (single isomer, unassigned) [I-98, 4-[2-(2-methoxy-4-methylsulfonyl-phenyl)azepan-1-yl]-6-methyl-pyrimidin-2-amine] was run?
Answer: 6.00 to 6.52

Question: What about the pEC50 [2] of the same compound?
Answer: > 6.22

Question: With `Cc1cc(N2CCCOCC2c2cc(NCCO)ccc2Cl)nc(N)n1` (single isomer, unassigned) [I-237] as the compound, how does the pIC50 [1] read?
Answer: > 6.52

Question: What about the pEC50 [2] of the same compound?
Answer: > 6.22

Question: Which results are given for `Cc1cc(N2CCCOC[C@@H]2c2cc(NCCO)ccc2Cl)nc(N)n1` (single isomer, unassigned) [I-253]?
Answer: pIC50 [1]: > 6.52; pEC50 [2]: > 6.22

Question: Which results are given for `Cc1cc(N2CCCOC[C@@H]2c2ccc(OC[C@@H](C)O)cc2Cl)nc(N)n1` (single isomer, unassigned) [I-265]?
Answer: pIC50 [1]: > 6.52; pEC50 [2]: > 6.22

Question: Which results are given for `CC(=O)Nc1cc([C@H]2COCCCN2c2cc(C)nc(N)n2)c(Cl)cc1F` (single isomer, unassigned) [I-271]?
Answer: pIC50 [1]: 6.00 to 6.52; pEC50 [2]: > 6.22

Question: What does the source list for `Cc1cc(N2CCCCCC2c2ccccc2Br)nc(N)n1` (stereo not shown) [I-69]?
Answer: pIC50 [1]: 6.00 to 6.52; pEC50 [2]: > 6.22

Question: How did the pIC50 [1] turn out when `COc1ccccc1C1CCCCCN1c1cc(C)nc(N)n1` (stereo not shown) [I-124] was run?
Answer: > 6.52

Question: And the pEC50 [2]?
Answer: 5.70 to 6.22

Question: How did the pIC50 [1] turn out when `Cc1cc(N2CCCOCC2c2cc(N3CC[C@H](O)C3)ccc2Cl)nc(N)n1` (stereo partly drawn) [I-234, (3S)-1-[3-[4-(2-amino-6-methyl-pyrimidin-4-yl)-1,4-oxazepan-3-yl]-4-chloro-phenyl]pyrrolidin-3-ol] was run?
Answer: 6.00 to 6.52

Question: What about the pEC50 [2] of the same compound?
Answer: > 6.22
